Consider 18 compounds from US10807948B2, “Aromatic compounds and uses thereof” (PELOTON THERAPEUTICS, INC., priority 2015, dated 2020).

Structures are written as SMILES. “Also recorded” adds a separate entry of the source.

In test [1] the test system is 786-O cells. The test can be described thus: VEGF ELISA Assay. The class given is cell-based. The conditions noted are these: Homo sapiens, 786-0, VEGF concentration in cell culture medium. As to the method:
About 7500 786-0 cells in 180 μL of growth medium were seeded into each well of a 96-well, white, clear bottom plate (07-200-566, Fisher Scientific) on day one in the layout presented in FIG. 3.
Each concentration was plated in duplicate. About 20 hours later, medium was removed by suction and each well was supplied with 180 μL of growth medium. About 20 μL freshly-made 10× compound stocks were added to each well. […] The EC50 was calculated by GraphPad Prism using the dose-response-inhibition (four parameter) equation. The cell-seeded plate was then subjected to CellTiter-Glo luminescence cell viability assay (Promega) by adding 50 μL of Celltiter Glo reagent into each well and shaking the plate for 8 minutes at 550 rpm (Thermomixer R, Eppendorf) then the luminescence signal immediately read in a plate reader (3 second delay, 0.5 second/well integration time, Synergy 2 multi Detection Microplate reader).

The target in test [2] is T1, HIF-2α HIS TAG-PASB Domain (Homo sapiens, UniProt Q99814).
T1 construct: 100 nM HIF-2α HIS TAG-PASB Domain
The test can be described thus: HIF-2α Scintillation Proximity Assay (SPA). The class given is binding. The following applies: displacement of tritiated probe from HIF-2α PASB domain. As to the method:
The total assay volume was about 100 μL in the following configuration: 2 μL compound in 100% DMSO, 88 μL buffer with protein and probe and 10 μL of SPA beads. […] The percent inhibition was determined and IC50 values were calculated using the Dotmatics system based on the following equation: % inhibition=[(high control−sample)/(high control−low control)]×100.

The test system of test [3] is 786-O-Hif-Luc cells. The test can be described thus: Luciferase Assay. The class given is cell-based. The conditions noted are these: about 24 hours. As for the experimental part:
786-O-Hif-Luc single clone cells were obtained by infecting 786-O cells (ATCC® CRL-1932™) with commercial lentivirus that delivers a luciferase gene driven by multiple HIF responsive elements (Cignal Lenti HIF Reporter (luc): CLS-007L, Qiagen) at Multiplicity of Infection (MOI) of 25 for 24 hours. […] A pool of infected cells were then selected against 2 μg/mL of puromycin (P8833, Sigma) for 10 days followed by limited dilution to select single clones. […] For the luciferase assay, about 7500 786-O-Hif-Luc cells in 90 μL growth medium were seeded into each well of a 96-well white opaque plate (08-771-26, Fisher scientific) a day before treatment with the layout presented in FIG. 5.
Each concentration was tested in triplicate. After about 24 hours, luciferase activity was determined using ONE-Glo Luciferase Assay Reagent (E6110, Promega) following the manufacturer's recommended procedure. EC50 were calculated using Dotmatics software.

Test [4] relates to renal cell carcinoma 786-O xenograft. The test is described as follows: In vivo PK/PD study: human VEGFA in plasma by ELISA. Also on record: species or system SCID/Biege mice. The conditions noted are these: 3 mg/kg oral gavage, six times at 12 hour intervals. As to the method: (§1) About 5×10^6 renal cell carcinoma 786-O tumor cells (ATCC® CRL-1932™, VHL and HIF-1α null cell line) in PBS and Matrigel (1:1 in volume) were injected subcutaneously at the right flanks of SCID/Biege mice at 6-7 weeks of age for xenograft development. When the xenografts reached about 400 mm^3 in size, the tumor bearing mice were randomly divided into 2 groups (n=3). Plasma was collected prior to treatment by retro-orbital bleeding. The animals were treated with either vehicle or Compound 95 at 3 mg/kg by oral gavage (six times at 12 hour intervals). All animals were sacrificed at 12 hours post last dose. Tumor, kidney, and plasma samples were collected from each animal. Total RNA was extracted from the tumors and kidneys. The mRNA levels of several genes were determined by qRT-PCR (FIG. 1).
The level of human VEGFA was determined by ELISA assay.

For test [5] the test system is unchanged. The test can be described thus: In vivo PK/PD study: mRNA levels of genes in tumor by qRT-PCR. Also on record: species or system SCID/Biege mice. The following applies: 3 mg/kg oral gavage, six times at 12 hour intervals; 12 hours post last dose. As for the experimental part:
as §1
Total RNA was extracted from the tumors, and the expressions of putative HIF-1α and HIF-2α regulated genes were determined by qRT-PCR.

The test system is the same in test [6]. The test can be described thus: In vivo efficacy study, 786-O xenograft. Set-up: species or system SCID/Biege mouse. The following applies: for Tumor size (mm^3) Mean ± SEM: after 28 days of dosing.

T1 sequence (Q99814 239-348): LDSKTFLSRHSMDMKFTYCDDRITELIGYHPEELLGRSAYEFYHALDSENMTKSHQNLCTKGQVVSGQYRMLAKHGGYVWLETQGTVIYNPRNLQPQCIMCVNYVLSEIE

Turning to `O=S(=O)(CF)c1ccc(OC2CC(F)(F)C2)c2c1[C@H](O)C(F)(F)[C@@H]2F` [Compound 97, (1S,3R)-4-(3,3-difluorocyclobutoxy)-2,2,3-trifluoro-7-((fluoromethyl)sulfonyl)-2,3-dihydro-1H-inden-1-ol], the EC50 in test [1] was less than 50 nM.
Compound `FC(F)COc1ccc(C(F)(F)F)c2c1CC(F)(F)C2F` (stereo not drawn) [Compound 214] came in with an IC50 in test [2] of more than 1000 nM.
For the compound `CCOc1ccc(S(=O)(=O)C(F)(F)F)c2c1CC(F)(F)C2O` (stereo not drawn) [Compound 113], the IC50 in test [2] was in the range of 50 to 249 nM.
Still for that read-out and setting: under `N#CC1(COc2ccc(S(=O)(=O)C(F)(F)F)c3c2CC(F)(F)C3O)CC1` (stereo not drawn) [Compound 142] stands less than 50 nM.
For `O=S(=O)(c1ccc(OCC2(F)COC2)c2c1[C@H](O)C(F)(F)C2)C(F)(F)F` [Compound 94, (S)-2,2-difluoro-4-((3-fluorooxetan-3-yl)methoxy)-7-((trifluoromethyl)sulfonyl)-2,3-dihydro-1H-inden-1-ol], the EC50 in test [3] was less than 50 nM.
`N#Cc1cncc(-c2ccc(S(=O)(=O)C(F)(F)F)c3c2CC(F)(F)C3O)c1` (stereo not drawn) [Compound 91] showed a concentration for half-maximal inhibition (IC50) in test [2] of more than 1000 nM. For the same compound, the EC50 in test [3] is more than 1000 nM.
`CS(=O)(=O)c1ccc(OCC2CC(F)(F)C2)c2c1[C@H](O)C(F)(F)[C@@H]2F` [Compound 287] registered an IC50 in test [2] of less than 50 nM.
As for `CS(=O)(=O)c1ccc(OC2CC(F)(F)C2)c2c1[C@H](O)C(F)(F)[C@@H]2F` [Compound 95, (1S,3R)-4-(3,3-difluorocyclobutoxy)-2,2,3-trifluoro-7-(methylsulfonyl)-2,3-dihydro-1H-inden-1-ol], the “human VEGFA plasma level” value in test [4] was “significant reduction; also recorded: reduced”. In test [5], the “CCND1 mRNA level in tumor” value is listed as “significant reduction; also recorded: reduced”, the “GLUT1 mRNA level in tumor” value is “significant reduction; also recorded: reduced”, the “PAI-1 mRNA level in tumor” value was “significant reduction; also recorded: reduced” and the “PGK1 mRNA level in tumor (HIF-1α specific target gene)” value was “no significant change; also recorded: no significant effect”. Also, the “VEGFA mRNA level in tumor” value in test [5] is “significant reduction; also recorded: reduced”. In addition, the “Tumor size (mm^3) Mean ± SEM” value in test [6] (1 mg/kg QD) was 525.72 mm^3. The “Tumor size (mm^3) Mean ± SEM” value in test [6] (3 mg/kg QD) was found to be 154.52 mm^3. Further, the “Tumor size (mm^3) Mean ± SEM” value in test [6] (10 mg/kg QD) was 89.45 mm^3. In addition, the “effect on tumor growth / tumor sizes” value in test [6] (1, 3 and 10 mg/kg QD for 28 days, single agent) is “statistically significant reduction of tumor sizes for all treatment groups; also recorded: tumor growth inhibition and regression”.
As for `OC1c2c(OCC(F)F)ccc(C(F)(F)F)c2C(F)C1(F)F` (stereo not drawn) [Compound 215], the IC50 in test [2] is more than 1000 nM.
Same read-out and setting: for `CS(=O)(=O)c1ccc(OC2CC(F)(F)C2)c2c1[C@H](O)[C@H](F)[C@@H]2F` (racemic) [Compound 98, (racemic)-4-(3,3-difluorocyclobutoxy)-2,3-difluoro-7-(methylsulfonyl)-2,3-dihydro-1H-inden-1-ol] the value was less than 50 nM.
On to `O=S(=O)(CF)c1ccc(OC2CC(F)(F)C2)c2c1[C@H](O)[C@H](F)[C@@H]2F` (racemic) [Compound 99, (racemic)-4-(3,3-difluorocyclobutoxy)-2,3-difluoro-7-((fluoromethyl)sulfonyl)-2,3-dihydro-1H-inden-1-ol], for which the IC50 in test [2] was less than 50 nM.
As for `CC1CC(Oc2ccc(S(=O)(=O)C(F)(F)F)c3c2CC(F)(F)C3O)CCO1` (stereo not drawn) [Compound 148], the EC50 in test [3] is less than 50 nM.
The compound `COC[C@@H](C)Oc1ccc(S(=O)(=O)C(F)(F)F)c2c1CC(F)(F)[C@H]2O` [Compound 184] had a concentration giving a half-maximal response (EC50) in test [3] of less than 50 nM.
The compound `OC1c2c(C(F)(F)F)ccc(OCC(F)F)c2CC1F` (stereo not drawn) [Compound 221] registered an IC50 in test [2] of 50 to 249 nM. In test [3], this compound yielded an EC50 of 50 to 249 nM.
`CO[C@H]1C[C@H](Oc2ccc(S(=O)(=O)C(F)(F)F)c3c2CC(F)(F)[C@H]3O)C1` [Compound 239]: in test [2], the IC50 was less than 50 nM.
Take `O[C@H]1c2c(C(F)(F)F)ccc(OC3CC(F)(F)C3)c2CC1(F)F` [Compound 109]: the EC50 in test [1] and in test [3] was less than 50 nM in each case.
As for `CS(=O)(=O)c1ccc(OC2CCC2)c2c1[C@H](O)C(F)(F)[C@@H]2F` [Compound 281], in test [3], the EC50 fell in the range of 50 to 249 nM.
`CS(=O)(=O)c1ccc(O[C@H]2C[C@H](F)C2)c2c1[C@H](O)C(F)(F)[C@@H]2F` [Compound 261]: in test [3], the EC50 is less than 50 nM.
